Data: PubChem BioAssay (NCI)
Several values for one entry are separate records, joined by “and”; a condition that tells them apart may be missing. Equal values may be shown once.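 Cells were grown in 96-well plates and exposed to each compound for 48 hours at five concentrations; endpoints were interpolated linearly between bracketing concentrations, or set to the highest concentration if not reached. Here, GI50 denotes the concentration required for 50% inhibition of growth. TGI: total growth inhibition.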

What was measured:
Experiment in all cases: NCI tumour cell line growth inhibition, 48 h
[1] = system: HS 578T breast
[2] = system: MDA-MB-231 breast
[3] = system: T-47D breast
[4] = system: MDA-N
[5] = system: DLD-1 colon
[6] = system: DMS 114 small cell lung
[7] = system: RXF-631 renal
[8] = system: HOP-18 NSCLC

## COc1ccc(C(=CCC(C)C2CCC3[C@@H]4C(OC(C)=O)CC5CC(OC(C)=O)CC[C@]5(C)C4CC(OC(C)=O)[C@]23C)c2ccc(OC)cc2)cc1 (stereo partly drawn)
[1]
  TGI: > 100 µM
[2]
  TGI: > 100 µM
[3]
  TGI: > 100 µM

## O=c1[nH]c2ccccc2cc1-c1nnc(Cc2ccccc2)o1
[1]
  GI50: 13.3 µM
  TGI: > 100 µM
[2]
  GI50: 3.29 µM
  TGI: 14.7 µM
[3]
  GI50: 3.04 µM
  TGI: 17.1 µM

## N=C(N)n1cc(/C=N/N=C(N)N)cn1
[1]
  TGI: > 100 µM
[2]
  TGI: > 100 µM
[4]
  TGI: > 100 µM
[3]
  TGI: > 100 µM

## CC(=O)C1(C(=O)C(=[N+]=[N-])S(=O)(=O)c2ccccc2)CC1
[1]
  TGI: > 100 µM
[2]
  TGI: > 100 µM
[4]
  TGI: > 100 µM

## OCC1OC(OC2(CO)OC(CO)C(O)C2O)C(O)C(O)C1O (stereo not drawn)
[2]
  GI50: > 100 µM
  TGI: > 100 µM
[3]
  GI50: > 100 µM
  TGI: > 100 µM

## Nc1ncnc2c1c(-c1ccc(Oc3ccccc3)cc1)nn2CC1SSCC1O (stereo not drawn)
[1]
  GI50: 5.84 µM
  TGI: 19.3 µM
[2]
  GI50: 5.36 µM
  TGI: 16.8 µM
[3]
  GI50: 0.653 µM
  TGI: 1.85 µM

## Nc1nc(-c2ccccc2)c(CC(=O)O)s1
[1]
  TGI: > 100 µM
[2]
  TGI: > 100 µM
[4]
  TGI: > 100 µM
[3]
  TGI: > 100 µM

## Cc1ccc(-n2nc(C(OC3OC(CO)C(O)C(O)C3O)C(O)CO)c3nc4cc(C)c(C)cc4nc32)cc1 (stereo not drawn)
[5]
  TGI: > 100 µM
[6]
  TGI: > 100 µM
[7]
  TGI: > 100 µM

## Cc1nc2ccncc2[nH]1
[5]
  TGI: > 100 µM
[6]
  TGI: > 100 µM
[7]
  TGI: > 100 µM

## O=C(CCCCN1CCN(CCCCC(=O)Nc2ccccc2C#C/C=C\C#Cc2ccccc2C(F)(F)F)CC1)Nc1ccccc1C#C/C=C\C#Cc1ccccc1C(F)(F)F
[1]
  GI50: 11.2 µM
  TGI: 25.3 µM
[2]
  GI50: 6.23 µM
  TGI: 16 µM
[3]
  GI50: 13.2 µM
  TGI: 29.2 µM

## O=C(O)c1ccccc1NCn1nc(-c2ccccc2O)oc1=S
[1]
  GI50: > 100 µM
  TGI: > 100 µM
[2]
  GI50: 16.8 µM
  TGI: 47.8 µM
[3]
  GI50: 68.7 µM
  TGI: > 100 µM

## CCOC(=O)C(Cc1ccc(N=NN(C)C)cc1)NC(=O)CC1c2ccccc2-c2ccccc21 (stereo not drawn)
[5]
  TGI: > 100 µM
[6]
  TGI: > 100 µM

## CCOC(=O)c1cn(C)c2c(OC)c3ccccc3c(OC)c2c1=O
[1]
  GI50: 23.6 µM
  TGI: 63.8 µM
[2]
  GI50: 32.6 µM
  TGI: > 100 µM
[3]
  GI50: 12.4 µM
  TGI: 42.9 µM

## O=C(O)c1ccccc1C(=O)c1ccco1
[5]
  TGI: > 100 µM
[6]
  TGI: > 100 µM
[8]
  TGI: > 100 µM

## CCc1ccc(Oc2c(-c3ccc(OCc4ccc(Cl)cc4)cc3O)nn(C)c2C(F)(F)F)cc1
[1]
  GI50: 1.5 µM
  TGI: 4.92 µM
[2]
  GI50: 1.19 µM
  TGI: 2.85 µM
[3]
  GI50: 0.248 µM
  TGI: 0.936 µM

## COC(=O)C1CCC(C)CC1=O (stereo not drawn)
[5]
  TGI: > 100 µM
[6]
  TGI: > 100 µM
[7]
  TGI: > 100 µM

## O=C1c2cccc3c(N4CCOCC4)ccc(c23)C(=O)N1CCN1CCN(CCCCCN2CCN(CCN3C(=O)c4cccc5c(N6CCOCC6)ccc(c45)C3=O)CC2)CC1
[1]
  GI50: > 100 µM
  TGI: > 100 µM
[2]
  GI50: > 100 µM
  TGI: > 100 µM
[3]
  GI50: > 100 µM
  TGI: > 100 µM

## COc1ccccc1/C=C(\NC(=O)c1ccccc1)c1nc2ccc(Cl)cc2[nH]1
[5]
  TGI: 88.9 µM
[6]
  TGI: 52.7 µM
[8]
  TGI: 82.6 µM

## COc1ccc(N(CC(=O)O)N=O)cc1
[1]
  TGI: > 100 µM
[2]
  TGI: > 100 µM
[4]
  TGI: > 100 µM
[3]
  TGI: > 100 µM

## C/C(CCN(C)C)=N/O
[5]
  TGI: 15.8 µM
[6]
  TGI: 20.7 µM
[8]
  TGI: 29.6 µM

## CO[C@H]1C(=O)[C@]2(C)[C@@H](OC)C[C@H]3OC[C@@]3(OC(C)=O)[C@H]2[C@H](OC(=O)c2ccccc2)[C@]2(O)C[C@H](OC(=O)[C@H](O)[C@@H](NC(=O)OC(C)(C)C)c3ccccc3)C(C)=C1C2(C)C
[2]
  GI50: < 0.0183 µM
  TGI: > 53.6 µM
[3]
  GI50: < 0.01 µM
  TGI: > 100 µM

## Cc1ccc(-n2c3nc(=O)n(C)c(=O)c-3nc3ccccc32)c(C)c1
[5]
  TGI: 39.9 µM
[8]
  TGI: 20.1 µM
[7]
  TGI: 23.9 µM

## COc1ccc([C@@]23Oc4cc(OC)cc(OC)c4[C@]2(O)[C@H](O)[C@H](C(=O)N(C)C)[C@H]3c2ccccc2)cc1
[1]
  GI50: 0.0225 µM
[2]
  GI50: 0.0231 µM
  TGI: 0.049 µM and 0.00949 µM and 0.0756 µM
[3]
  TGI: 0.044 µM and 0.0052 µM

## Cc1cc(NC(=O)NC(=O)c2ccccc2NC(=O)CN(C)C)ccc1Oc1ncc(Br)cn1
[5]
  TGI: > 100 µM
[6]
  TGI: 35.7 µM
[1]
  TGI: > 23.9 µM
[2]
  TGI: > 78.1 µM
[4]
  TGI: 0.505 µM
[3]
  TGI: > 100 µM

## CN(C)C1C(=O)C(C(N)=O)=C(O)C2(O)C(=O)C3=C(O)c4c(O)cccc4C(C)(O)C3CC12.[Cl][Sb]([Cl])[Cl] (stereo not drawn)
[1]
  GI50: 3 µM
  TGI: > 100 µM
[2]
  GI50: 4.3 µM
  TGI: 15.3 µM
[3]
  GI50: 3.81 µM
  TGI: 13.2 µM

## NC1=NC(c2ccccc2Cl)c2c(n[nH]c2N)N1 (stereo not drawn)
[1]
  GI50: > 100 µM
  TGI: > 100 µM
[2]
  GI50: 5.95 µM
  TGI: > 100 µM
[3]
  GI50: 26.1 µM
  TGI: > 100 µM

## CCOC(=O)C[C@@]12CCCN[C@]1(C)CCc1ccccc12
[5]
  TGI: > 100 µM
[8]
  TGI: > 100 µM

## O=C(CI)NC(=O)NC(=O)NCc1ccccc1
[1]
  GI50: 20.9 µM
  TGI: 72.4 µM
[2]
  GI50: 3.9 µM
  TGI: 15.7 µM
[3]
  GI50: 2.48 µM
  TGI: 6.7 µM

## CC[n+]1c(-c2ccccc2)c2cc(N)ccc2c2ccc(N)cc21
[6]
  TGI: 10.1 µM
[8]
  TGI: 18.3 µM
[1]
  TGI: 5.86 µM
[2]
  GI50: 2.11 µM
  TGI: 39.3 µM and 37.3 µM
[4]
  TGI: 19 µM
[3]
  GI50: 0.323 µM
  TGI: 2.91 µM and 15 µM

## Cc1ccc(S(=O)(=O)Nc2ccccc2C(C)(C)C)cc1
[5]
  TGI: > 100 µM
[6]
  TGI: 60.4 µM

## C/C(=C/CCC(C)[C@@H]1CC[C@]2(C)C3=C(CC[C@@]12C)[C@@]1(C)CCC(=O)C(C)(C)[C@@H]1CC3)C(=O)O (stereo partly drawn)
[1]
  GI50: 1.45 µM
  TGI: 3.4 µM
[2]
  GI50: 1.53 µM
  TGI: 3.15 µM
[3]
  GI50: 1.14 µM
  TGI: 3.08 µM

## COc1cc([C@@H]2c3cc4c(cc3[C@H](SC(=N)N)[C@H]3COC(=O)[C@H]23)OCO4)cc(OC)c1OC
[1]
  GI50: 0.264 µM
  TGI: > 100 µM
[2]
  GI50: 0.388 µM
  TGI: > 100 µM
[3]
  GI50: 66.7 µM
  TGI: > 100 µM

## COc1cccc(-c2cc(=O)c3cc(N4CCN(C)CC4)ccc3[nH]2)c1
[1]
  TGI: 4.88 µM
[2]
  GI50: 2.24 µM
  TGI: 9.89 µM and 7.13 µM
[4]
  GI50: 0.349 µM
  TGI: 0.923 µM and 4.25 µM
